Results from patent publication US20260325561A1, “4'-SUBSTITUTED NUCLEOSIDES AND NUCLEOTIDES AS ANTIVIRAL AGENTS” (THE SCRIPPS RESEARCH INSTITUTE, priority 2023, published 2026).

Legend:
[1] = test system: DENV-2; assay: microbe, parasite or virus in culture; type: cell-based, DENV-2 16681; conditions: Dengue virus, DENV2, HepG2, 24 h, read-out: DENV-2 / HepG2 EC50
[2] = in vitro; conditions: human, h1 hela cells
[3] = test system: RSV A2; assay: microbe, parasite or virus in culture; type: cell-based; conditions: human respiratory syncytial virus, HEp-2, 72 h, read-out: RSV A2 / Hep2 EC50
[4] = test system: SARS-CoV-2; assay: microbe, parasite or virus in culture; type: cell-based, SARS-CoV-2 strain USA-WA1/2020; conditions: Severe acute respiratory syndrome coronavirus 2, HeLa-ACE2, 24 h, read-out: SARS-CoV-2 / HeLa-ACE2 EC50
[5] = in vitro; conditions: human, hepg2 cells
[6] = test system: HRV 14; assay: microbe, parasite or virus in culture; type: cell-based, Human Rhinovirus 14 strain 1059; conditions: Rhinovirus B, H1-HeLa, 48 h, read-out: HRV / H1 HeLa B 14 EC50
[7] = in vitro; conditions: human, hela-ace2 cells
[8] = in vitro; conditions: human, hep2 cells

Compound | EC50 [1] [µM] | CC50 [2] [µM] | EC50 [3] [µM] | EC50 [4] [µM] | CC50 at 72 h [5] [µM] | EC50 [6] [µM] | CC50 at 24 h [7] [µM] | CC50 [8] [µM]
CNc1nc(N)nc2c1ncn2[C@@H]1O[C@](F)(COP(=O)(N[C@@H](C)C(=O)OC(C)C)Oc2ccccc2)[C@@H](O)[C@]1(F)Cl (single isomer, unassigned) [Example 58] | 0.1 to 1 | > 99 | > 10 | > 10 | > 99 | 0.1 to 1 | > 99 | > 99
CNc1nc(N)nc2c1ncn2[C@@H]1O[C@](F)(COP(=O)(N[C@@H](C)C(=O)OC(C)C)Oc2ccccc2)[C@@H](O)[C@]1(F)Cl (single isomer, unassigned) [Example 59] | 1 to 10 | > 99 | > 10 | > 10 | > 99 | 1 to 10 | > 99 | > 99
CO[C@]1(CO)O[C@@H](c2ccc3c(N)ncnn23)[C@](C)(O)[C@@H]1O [Example 3, (2R,3S,4R,5S)-5-(4-aminopyrrolo[2,1-f][1,2,4]triazin-7-yl)-2-(hydroxymethyl)-2-methoxy-4-methyltetrahydrofuran-3,4-diol] | > 10 | > 99 | > 10 | > 10 | > 99 | > 10 | > 99 | > 99
[N-]=[N+]=N[C@]1(CO)C[C@@H](O)[C@H](n2ccc3c(N)ncnc32)O1 [Example 8, (2R,3R,5R)-2-(4-amino-7H-pyrrolo[2,3-d]pyrimidin-7-yl)-5-azido-5-(hydroxymethyl)tetrahydrofuran-3-ol] | > 10 | > 99 | > 10 | > 10 | > 99 | > 10 | > 99 | > 99
Nc1ncnc2c1c(C(F)(F)F)cn2[C@@H]1O[C@](F)(CO)[C@@H](O)[C@H]1O [Example 42, (2S,3S,4R,5R)-5-(4-amino-5-(trifluoromethyl)-7H-pyrrolo[2,3-d]pyrimidin-7-yl)-2-fluoro-2-(hydroxymethyl)tetrahydrofuran-3,4-diol] | < 0.1 |  |  |  | < 1 |  |  | 
Cc1ncnc2c1ccn2[C@@H]1O[C@](F)(CO)[C@@H](O)[C@H]1O [Example 53, (2S,3S,4R,5R)-2-fluoro-2-(hydroxymethyl)-5-(4-methyl-7H-pyrrolo[2,3-d]pyrimidin-7-yl)tetrahydrofuran-3,4-diol] | 1 to 10 | > 99 | > 10 |  | 10 to 99 | > 10 |  | > 99
OC[C@@]1(F)O[C@@H](n2ccc3c(C4CC4)ncnc32)[C@H](O)[C@@H]1O [Example 54, (2S,3S,4R,5R)-5-(4-cyclopropyl-7H-pyrrolo[2,3-d]pyrimidin-7-yl)-2-fluoro-2-(hydroxymethyl)tetrahydrofuran-3,4-diol] | > 10 | > 99 | > 10 |  | > 99 | > 10 |  | > 99
Nc1ncnc2c1c(-c1nc3ccccc3s1)cn2[C@@H]1O[C@](F)(CO)[C@@H](O)C1(F)F [Example 55, (2S,3R,5R)-5-(4-amino-5-(benzo[d]thiazol-2-yl)-7H-pyrrolo[2,3-d]pyrimidin-7-yl)-2,4,4-trifluoro-2-(hydroxymethyl)tetrahydrofuran-3-ol] |  |  |  | < 0.1 |  |  | 1 to 10 | 
CC(C)OC(=O)[C@H](C)NP(=O)(OC[C@@]1(F)O[C@@H](n2cnc3c(=O)[nH]c(N)nc32)C(F)(F)[C@@H]1O)Oc1ccccc1 (stereo partly drawn) [Example 61, isopropyl ((((2S,3R,5R)-5-(2-amino-6-oxo-1,6-dihydro-9H-purin-9-yl)-2,4,4-trifluoro-3-hydroxytetrahydrofuran-2-yl)methoxy)(phenoxy)phosphoryl)-L-alaninate] | > 10 |  |  |  | > 99 |  |  | 
